According to PubChem BioAssay AID1963837 (Molecular Pharmacology Branch, DTP, NCI, 2024):
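Also: spheroids exposed to drugs for seven days before readout.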

What follows are compounds tested on 843126-344-R-J1-PDC complex spheroid viability (assay: Anticancer human tumor 843126-344-R-J1-PDC patient-derived melanoma cell line growth inhibition [POLQ]). Settings: second compound 0.316 µM; first compound 0.316 µM; active compounds read low.
Procedure: Multicellular complex tumor spheroid response to Polymerase (POL) inhibitors (novobiocin, ART-558, RP6685) in combination with a variety of drugs and investigational agents in selected tumor cell lines
The POL inhibitors (novobiocin, ART-558, and RP6685) were evaluated both individually and in combination with standard of care and investigational anticancer small molecules within a complex spheroid model of solid tumors. . Complex spheroids include a stromal component modeled by human endothelial cells (HUVEC) and fibroblasts modeled by human mesenchymal stem cells (MSCs). The concentration ranges selected for each drug and investigational agent were based upon clinically achievable concentrations if the clinical Cmax of the agent was known.
Compounds. The drugs and investigational agents: novobiocin (NSC847541), ART-558 (NSC835418), RP-6685 (NSC848927), peposertib (NSC802822), ceralasertib (NSC780249), elimusertib (NSC800525), camonsertib (NSC841442), AZD-1390 (NSC803789), olaparib (NSC753686), talazoparib (NSC767125), rucaparib (NSC756644), sotorasib (NSC818433), MRTX-1133 (NSC836407), SN-38 (NSC673596), topotecan (NSC609699), epotoside (NSC141540), doxorubicin (NSC123127), gemcitabine (NSC613327), 5-fluorouracil (NSC19893), paclitaxel (NSC125973), vemurafenib (NSC761431), MSA-2 (NSC828583), SN-011 (NSC837082), adavosertib (NSC754352), prexasertib (NSC758257), carboplatin (NSC241240) and oxaliplatin (NSC266046), were obtained from the National Cancer Institute (NCI) Developmental Therapeutics Program Chemical Repository (21). The FDA-approved anticancer drug set is available from the Developmental Therapeutics Program at https://dtp.cancer.gov/organization/dscb/obtaining/. […] The stock solutions were prepared in dimethyl sulfoxide (DMSO, Sigma-Aldrich, St. Louis, MO, cat. D2650), except for the platinum compounds which were prepared in saline (Quality Biological, Gaithersburg, MD, cat. 114-055-101), at 800-fold the tested concentration and stored at -70 degrees C prior to their use. All drugs and investigational agents were tested over a range starting from a high concentration at or near the clinical Cmax and decreasing in half-log increments. If the clinical Cmax for an agent had not been determined, the highest concentration tested was 10 microM, except for SN-38, which was tested at a high concentration of 1 microM.
Cell Culture. All cells were maintained in an incubator at 37 degrees C and 5% CO2 with 95% humidity. The PDC lines were cultured according to standard operating procedures established by the NCI PDMR (https://pdmr.cancer.gov). Table 3 of the manuscript, lists the cell lines along with the number of the three cell types plated to form the mct-spheroids and media for tumor cell growth. After thawing, all PDC lines, except 997537-175-T-J1-PDC and 415267-285-R-J2-PDC, were cultured in Matrigel-coated flasks prepared with a working solution of 1X Ham's F-12 nutrient mix, without supplementation (Thermo Fisher Scientific, cat. 11765054), 100 U/mL penicillin-streptomycin (Thermo Fisher Scientific, cat. 15140122), and 2.5% Matrigel (Corning Inc., Corning, NY, cat. 354248) for the first three passages. The two PDC lines 997537-175-T-J1-PDC and 415267-285-R-J2-PDC were cultured on uncoated flasks. The 857933-349-R-J2-PDC line was cultured in 6C/Colon 1B media containing advanced DMEM/F-12 (Thermo Fisher Scientific, cat. 12634028), 10 mM HEPES (Thermo Fisher Scientific, cat. 15630080), 1X GlutaMAX supplement (Thermo Fisher Scientific, cat. 35050061), 0.1 mg/mL primocin (InvivoGen, San Diego, CA, cat. ant-pm-2), 10% defined fetal bovine serum, heat inactivated (HyClone Laboratories Inc., Logan, UT, cat. SH30070.03HI), 50% L-WRN conditioned media (ATCC, cat. CRL-3276), 1.25 mM N-Acetyl-L-cysteine (Sigma-Aldrich, cat. A9165), 10 mM nicotinamide (Sigma-Aldrich, cat. N0636), 1X B-27 supplement (Thermo Fisher Scientific, cat. 17504044), 1X N-2 supplement (Thermo Fisher Scientific, cat. […]
In the case of `CC1COCCN1c1cc(C2(S(C)(=N)=O)CC2)nc(-c2ccnc3[nH]ccc23)n1` (stereo unspecified) + Cc1cccc(N(C)C(=O)C2C(O)CCN2c2nc(C)cc(C(F)(F)F)c2C#N)c1, the viability, T/C is reported as 76.6%.
Compound `COc1cccc(OCCCN)c1-c1cc(Nc2cnc(C#N)cn2)n[nH]1` + Cc1cccc(N(C)C(=O)C2C(O)CCN2c2nc(C)cc(C(F)(F)F)c2C#N)c1 has a viability, T/C of 43.3%.

Same assay, conditions: second compound 0.316 µM; first compound 1 µM; active compounds read low
In the case of `CC1COCCN1c1cc(-c2ccnn2C)c2ccnc(-c3ccn[nH]3)c2n1` (stereo unspecified) + Cc1cccc(N(C)C(=O)C2C(O)CCN2c2nc(C)cc(C(F)(F)F)c2C#N)c1, the viability, T/C is reported as 63.9%.
In the case of `CC1COCCN1c1cc(C2(O)CC3CCC(C2)O3)c2cnn(-c3ccn[nH]3)c2n1` (stereo unspecified) + Cc1cccc(N(C)C(=O)C2C(O)CCN2c2nc(C)cc(C(F)(F)F)c2C#N)c1, the viability, T/C is reported as 45.2%.
With `CC1COCCN1c1cc(C2(S(C)(=N)=O)CC2)nc(-c2ccnc3[nH]ccc23)n1` (stereo unspecified) + Cc1cccc(N(C)C(=O)C2C(O)CCN2c2nc(C)cc(C(F)(F)F)c2C#N)c1 the viability, T/C was 80.3%.
For `COc1cccc(OCCCN)c1-c1cc(Nc2cnc(C#N)cn2)n[nH]1` + Cc1cccc(N(C)C(=O)C2C(O)CCN2c2nc(C)cc(C(F)(F)F)c2C#N)c1, the viability, T/C was 34.4%.

Same assay, conditions: second compound 0.316 µM; first compound 3.16 µM; active compounds read low
`CC1COCCN1c1cc(-c2ccnn2C)c2ccnc(-c3ccn[nH]3)c2n1` (stereo unspecified) + Cc1cccc(N(C)C(=O)C2C(O)CCN2c2nc(C)cc(C(F)(F)F)c2C#N)c1 showed a viability, T/C of 43%.
Work on `CC1COCCN1c1cc(C2(O)CC3CCC(C2)O3)c2cnn(-c3ccn[nH]3)c2n1` (stereo unspecified) + Cc1cccc(N(C)C(=O)C2C(O)CCN2c2nc(C)cc(C(F)(F)F)c2C#N)c1 yielded a viability, T/C of 34%.
Compound `CC1COCCN1c1cc(C2(S(C)(=N)=O)CC2)nc(-c2ccnc3[nH]ccc23)n1` (stereo unspecified) + Cc1cccc(N(C)C(=O)C2C(O)CCN2c2nc(C)cc(C(F)(F)F)c2C#N)c1 has a viability, T/C of 66.6%.

Same assay, conditions: second compound 0.316 µM; first compound 10 µM; active compounds read low
For `CC1COCCN1c1cc(-c2ccnn2C)c2ccnc(-c3ccn[nH]3)c2n1` (stereo unspecified) + Cc1cccc(N(C)C(=O)C2C(O)CCN2c2nc(C)cc(C(F)(F)F)c2C#N)c1, the viability, T/C was 36.7%.
With `CC1COCCN1c1cc(C2(O)CC3CCC(C2)O3)c2cnn(-c3ccn[nH]3)c2n1` (stereo unspecified) + Cc1cccc(N(C)C(=O)C2C(O)CCN2c2nc(C)cc(C(F)(F)F)c2C#N)c1 the viability, T/C was 19.2%.
`CC1COCCN1c1cc(C2(S(C)(=N)=O)CC2)nc(-c2ccnc3[nH]ccc23)n1` (stereo unspecified) + Cc1cccc(N(C)C(=O)C2C(O)CCN2c2nc(C)cc(C(F)(F)F)c2C#N)c1 gave a viability, T/C of 58.5%.

Same assay, conditions: second compound 1 µM; first compound 0.00316 µM; active compounds read low
For `COc1cccc(OCCCN)c1-c1cc(Nc2cnc(C#N)cn2)n[nH]1` + Cc1cccc(N(C)C(=O)C2C(O)CCN2c2nc(C)cc(C(F)(F)F)c2C#N)c1, the viability, T/C was 92.9%.

Same assay, conditions: second compound 1 µM; first compound 0.01 µM; active compounds read low
`COc1cccc(OCCCN)c1-c1cc(Nc2cnc(C#N)cn2)n[nH]1` + Cc1cccc(N(C)C(=O)C2C(O)CCN2c2nc(C)cc(C(F)(F)F)c2C#N)c1 showed a viability, T/C of 72.1%.

Same assay, conditions: second compound 1 µM; first compound 0.0316 µM; active compounds read low
`CC1COCCN1c1cc(-c2ccnn2C)c2ccnc(-c3ccn[nH]3)c2n1` (stereo unspecified) + Cc1cccc(N(C)C(=O)C2C(O)CCN2c2nc(C)cc(C(F)(F)F)c2C#N)c1 gave a viability, T/C of 88.1%.
`CC1COCCN1c1cc(C2(O)CC3CCC(C2)O3)c2cnn(-c3ccn[nH]3)c2n1` (stereo unspecified) + Cc1cccc(N(C)C(=O)C2C(O)CCN2c2nc(C)cc(C(F)(F)F)c2C#N)c1 gave a viability, T/C of 99.3%.
Compound `CC1COCCN1c1cc(C2(S(C)(=N)=O)CC2)nc(-c2ccnc3[nH]ccc23)n1` (stereo unspecified) + Cc1cccc(N(C)C(=O)C2C(O)CCN2c2nc(C)cc(C(F)(F)F)c2C#N)c1 has a viability, T/C of 94.1%.
`COc1cccc(OCCCN)c1-c1cc(Nc2cnc(C#N)cn2)n[nH]1` + Cc1cccc(N(C)C(=O)C2C(O)CCN2c2nc(C)cc(C(F)(F)F)c2C#N)c1 gave a viability, T/C of 62.4%.

Same assay, conditions: second compound 1 µM; first compound 0.1 µM; active compounds read low
Work on `CC1COCCN1c1cc(-c2ccnn2C)c2ccnc(-c3ccn[nH]3)c2n1` (stereo unspecified) + Cc1cccc(N(C)C(=O)C2C(O)CCN2c2nc(C)cc(C(F)(F)F)c2C#N)c1 yielded a viability, T/C of 85%.
`CC1COCCN1c1cc(C2(O)CC3CCC(C2)O3)c2cnn(-c3ccn[nH]3)c2n1` (stereo unspecified) + Cc1cccc(N(C)C(=O)C2C(O)CCN2c2nc(C)cc(C(F)(F)F)c2C#N)c1 showed a viability, T/C of 62.8%.
With `CC1COCCN1c1cc(C2(S(C)(=N)=O)CC2)nc(-c2ccnc3[nH]ccc23)n1` (stereo unspecified) + Cc1cccc(N(C)C(=O)C2C(O)CCN2c2nc(C)cc(C(F)(F)F)c2C#N)c1 the viability, T/C was 86.7%.
